Reference: US8258290B2, “Glycomimetic inhibitors of the PA-IL lectin, PA-IIL lectin or both the lectins from pseudomonas” (priority 2005, dated 2012)

What was measured:
PA-IL lectin = molecular target: T1, PA-IL lectin (Pseudomonas aeruginosa, UniProt Q05097); experiment: Assay for PA-IL antagonist activity (plate-coated PA-IL, α-galactose-PAA-biotin/streptavidin-HRP competition); format: binding; conditions: for inhibition of PA-IL lectin: FIG. 5
T1 construct: purchased Sigma-Aldrich, St. Louis, Mo
T1 sequence (Q05097 whole entry): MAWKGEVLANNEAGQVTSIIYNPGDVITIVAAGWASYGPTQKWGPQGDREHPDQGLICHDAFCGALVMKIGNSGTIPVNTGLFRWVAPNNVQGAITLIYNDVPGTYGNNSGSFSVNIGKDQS
Experimental: (§1) Wells of a microtiter plate (plate 1) are coated with PA-IL (Sigma-Aldrich, St. Louis, Mo.) by incubation for 2 hrs at 37° C. The wells are then blocked for 2 hrs by the addition of 1% bovine serum albumin (BSA) diluted in TBS-Ca (50 mM TrisHCl, 150 mM NaCl, 2 mM CaCl2 pH 7.4) mixed 1:1 v/v with Stabilcoat (Surmodics, Eden Prairie, Minn.). In a second low-binding round-bottom microtiter plate (plate 2), test antagonists are serial diluted in 1% BSA in TBS-Ca/Stabilcoat (60 μl/well). Preformed conjugates of α-galactose-PAA-biotin (GlycoTech Corp, Gaithersburg, Md.) mixed with streptavidin-HRP (KPL Labs, Gaithersburg, Md.) are added to each well of plate 2 (60 μl/well of 2 μg/ml). Plate 1 is then washed with TBS-Ca and 100 μl/well are transferred from plate 2 to plate 1. After incubation at room temperature for 2 hrs, plate 1 is washed and 100 μl of TMB reagent (KPL Labs, Gaithersburg, Md.) is added to each well. After incubation for 5 minutes at room temperature, the reaction is stopped by adding 100 μl/well of 1M H3PO4 and the absorbance of light at 450 nm is determined by a microtiter plate reader.

[1] = molecular target: PA-IIL binding to human epithelial cells (Pseudomonas aeruginosa, UniProt Q9HYN5); experiment: Inhibition of PA-IIL lectin binding to human buccal epithelial cells (flow cytometry); format: cell-based; conditions: FIG. 9A-9F, biotinylated PA-IIL, fluorescein-labeled streptavidin, FACS
Sequence of PA-IIL binding to human epithelial cells (Q9HYN5 entry or part of it): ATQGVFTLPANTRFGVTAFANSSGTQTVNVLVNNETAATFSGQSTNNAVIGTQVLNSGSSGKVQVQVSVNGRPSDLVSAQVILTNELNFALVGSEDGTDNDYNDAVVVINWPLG
Experimental: FIG. 9A-9F illustrates the inhibition of PA-IIL binding to human epithelial cells. Human buccal epithelial cells are incubated with biotinylated PA-IIL lectin followed by detection of bound lectin with fluorescein-labeled streptavidin. Fluorescently labeled cells are quantified by fluorescent-activated cell sorting (FIG. 9B).
Obtain sample of buccal cells by scraping inside of cheek and collecting in 2 mis PBS. Spin cells at 400 g for 7 minutes to generate cell pellet. Discard supernatant. Resuspend in cold TBS-Ca (50 mM TrisHCl, 150 mM NaCl, 2 mM CaCl2 pH 7.4) to cell concentration of 10^6 cells/ml. Aliquot 0.1 ml to each tube. Add biotinylated PA-I or PA-II to tubes (5μ/well of 1.0 mg/ml lectin). Add inhibitors to tubes (5 μl at desired concentration). Incubate on ice for 30 minutes. Wash cells once by adding 400 μl of cold TBS-Ca to each tube and spinning at 400 g for 7 minutes. Discard supernatant. Resuspend cells in 100 μl of cold TBS-Ca. Add streptavidin-FITC (2 μl/tube of 1 mg/ml, KPL Labs, Gaithersburg, Md.). Incubate 30 minutes on ice. Wash cells once by adding 400 μl of cold TBS-Ca to each tube and spinning at 400 g for 7 minutes. Discard supernatant. Resuspend cells in 500 μl of cold TBS-Ca. Analyze in flow cytometer.

PA-IIL lectin = molecular target: T2, PA-IIL lectin (Pseudomonas aeruginosa, UniProt Q9HYN5); experiment: Assay for PA-IIL antagonist activity (plate-coated PA-IIL, fucose-PAA-biotin/streptavidin-HRP competition); format: binding; conditions: for inhibition of the PA-IIL lectin: FIG. 6
T2 construct: Dr. Wimmerova, Masaryk University, Brno, Czech Republic
T2 sequence (Q9HYN5 entry or part of it): as above
Experimental: as §1, with “PA-IIL (Dr. Wimmerova, Masaryk University, Brno, Czech Republic)” for “PA-IL (Sigma-Aldrich, St. Louis, Mo.)”, “Preformed conjugates of α-galactose-PAA-biotin (GlycoTech Corp, Gaithersburg, Md.) mixed with streptavidin-HRP (KPL Labs, Gaithersburg, Md.) are added to each well of plate 2 (60 μl/well of 2 μg/ml).” left out

Row | Compound | inhibition of PA-IL lectin (PA-IL lectin; qualitative) | inhibition of PA-IIL binding to human epithelial cells [1] | inhibition of the PA-IIL lectin (PA-IIL lectin; qualitative) | inhibition of PA-IIL in IC50 determination (PA-IIL lectin; FIG. 8, qualitative) | inhibition of PA-IIL relative to fucose (from IC50 determination) (PA-IIL lectin; FIG. 8, times better than fucose) [times] | inhibition of PA-IL relative to galactose (from IC50 determination) (PA-IL lectin; FIG. 7, times better than galactose) [times] | inhibition of PA-IL in IC50 determination (PA-IL lectin; FIG. 7, qualitative)
1 | OC[C@H]1O[C@H](OCC2O[C@@H](O)[C@H](O)[C@@H](O)[C@@H]2O)[C@H](O)[C@@H](O)[C@H]1O (stereo partly drawn) [Melibiose, Melibiose (Galα1-6Gal)] | inhibited |  |  |  |  |  | 
2 | O=C[C@H](O)[C@@H](O)[C@@H](O)[C@H](O)CO [galactose] | inhibited | no effect | not | inactive |  |  | 
3 | CC1OC(OC2C(CO)OCCC2OC2OC(CO)C(O)C(OC3OC(CO)C(O)C(O)C3O)C2O)C(O)C(O)C1O (stereo not drawn) [Glycomimetic 1] | inhibited | inhibits binding | inhibited |  | 4 to 5 | 4 to 5 | 
4 | C[C@H](O)[C@@H](O)[C@@H](O)[C@H](O)C=O [fucose] | not |  |  |  |  |  | inactive
